7 compounds from PubChem BioAssay (NCI) can be followed below.

Molecules are shown by their SMILES.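 Results reflect a 48-hour exposure of cells in 96-well plates to compound at five concentrations. At the GI50, growth is halved. Definition used: TGI = concentration required for complete inhibition of growth.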

Holding throughout (experiment): inhibition of tumour cell growth, NCI panel, 48 h
Assay [1] relates to A549 NSCLC.
Assay [2] concerns HCT-116 colon.
Assay [3] deals with HS 578T breast.
Assay [4] has as its system HT29 colon.
For assay [5], the system named is IGROV1 ovarian.
In assay [6] the test system is MCF7 breast.
Assay [7] concerns NCI/ADR-RES ovarian.
Assay [8] deals with PC-3 prostate.
Assay [9] has as its system SF-268 CNS.
Assay [10] deals with SK-OV-3 ovarian.

Take `COc1ccc2c(c1)c(-c1nc(-c3c[nH]c4ccncc34)cs1)cn2C`: the GI50 was 1.87 µM in [1]; 1.69 µM in [2]; 2.03 µM in assay [3]; 1.2 µM in assay [4]; 1.91 µM in [5]; 1.47 µM in [6]. Moreover, the GI50 is 1.76 µM in assay [7], 1.6 µM in assay [8], 1.77 µM in [9] and 1.88 µM in assay [10]. Moreover, the TGI in assay [1] is 3.46 µM; in assay [2] it was 3.22 µM; in assay [3], 4.02 µM; in [4] it was 2.62 µM; in assay [5], 3.54 µM; in assay [6], 3.09 µM. The TGI in [7] worked out at 3.38 µM; in [8], 3.06 µM; in assay [9] it was 3.37 µM; in [10] it was 3.37 µM.
On to `COc1ccc(CN2c3ccccc3Sc3ccccc32)c(C(F)(F)F)c1`, for which the GI50 in [1] was 0.807 µM; in assay [2], 0.419 µM; in assay [3], 0.877 µM; in assay [4] it was 0.681 µM; in assay [5], 3.43 µM; in [6], 0.349 µM. The GI50 was 0.462 µM in [7], 0.546 µM in assay [8], 10.9 µM in assay [9] and 0.557 µM in assay [10]. In addition, the TGI in [1] was 68.5 µM; in assay [2], 21.8 µM; in assay [3], > 100 µM; in assay [4], 10.9 µM; in assay [5], > 100 µM; in assay [6], 36.8 µM. For the same compound, the TGI was 3.16 µM in assay [7], > 100 µM in [8], 98.5 µM in [9] and > 100 µM in assay [10].
With `CCC(C)[C@H](NC(=O)Nc1cc(C(F)(F)F)cc(C(F)(F)F)c1)C(=O)N[C@@H](Cc1cn(C)cn1)C(=O)OC` (stereo not given in full), the GI50 in assay [1] was 1.33 µM; in [2] it was 0.606 µM; in [3], 1.47 µM; in assay [4], 0.711 µM; in assay [5] it was 1.04 µM; in [6], 0.513 µM. In addition, the GI50 in assay [7] is 3.78 µM; in [8], 0.715 µM; in assay [9], 0.61 µM; in assay [10], 1.38 µM. Further, the TGI was 1.85 µM in assay [1]; 1.21 µM in assay [2]; 2.61 µM in assay [3]; 1.4 µM in assay [4]; 2.06 µM in assay [5]; 1.08 µM in [6]. The TGI in assay [7] was 5.57 µM; in assay [8], 1.77 µM; in assay [9] it was 1.16 µM; in assay [10] it was 1.82 µM.
For the compound `COc1ccc(Cc2coc3ccccc3c2=O)cc1OC`, the TGI in [1], in assay [2], in assay [3], in [4], in [5] and in [6] was > 100 µM each time. Also, the TGI in [7], in assay [8], in [9] and in assay [10] was > 100 µM in each case.
Consider `O=S(=O)(NNc1ccccc1)c1ccccc1`, for which the TGI in assay [1] was 23.5 µM; in assay [2], 29.4 µM; in assay [3] it was > 100 µM; in [4] it was 27.2 µM; in assay [5], 32.7 µM; in assay [6], 28.8 µM. Also, the TGI is 36.1 µM in assay [7], 22.9 µM in assay [8], > 100 µM in assay [9] and > 100 µM in assay [10].
Take `NC(=O)c1cc([N+](=O)[O-])c(Cl)c([N+](=O)[O-])c1Cl`: the GI50 in assay [1] is 1.88 µM; in assay [2] it was 0.228 µM; in assay [3], 1.98 µM; in [4], 0.308 µM; in assay [5], 0.625 µM; in assay [6], 0.893 µM. Also, the GI50 in assay [7] was 2.01 µM; in assay [8], 1.58 µM; in [9] it was 1.64 µM; in assay [10] it was 4.21 µM. Besides, the TGI in assay [1] turned out to be 3.8 µM; in assay [2], 0.582 µM; in assay [3], 4.98 µM; in [4] it was 1.05 µM; in assay [5], 7.73 µM; in assay [6], 2.64 µM. Further, the TGI in assay [7] was 4.93 µM; in assay [8], 3.1 µM; in assay [9], 3.07 µM; in [10] it was 14.5 µM.
For `CC1(C)CNc2cc(NC(=O)c3cccnc3NCc3ccncc3)ccc21`, the GI50 in [1] is 31.9 µM; in assay [2], 34.3 µM; in [3], 26.8 µM; in assay [4] it was 32.2 µM; in assay [5] it was 19.9 µM; in [6], 23 µM. Further, the GI50 was 25.1 µM in assay [7], 25.4 µM in assay [8], 28.1 µM in assay [9] and 26.5 µM in assay [10]. Also, the TGI in assay [1] was > 100 µM; in [2] it was > 100 µM; in assay [3] it was > 100 µM; in [4] it was > 100 µM; in [5], > 84.2 µM; in assay [6], > 100 µM. Besides, the TGI in assay [7], in assay [8], in assay [9] and in [10] was > 100 µM in each case.
